Structures can show the parent of a compound that is named as a salt.
Columns and labels:
[1] = in vivo; conditions: rat, iv, 3 mg/kg
Method: 4. Concentration of unchanged drug in the serum
A drug being tested was administered to an SD rat (male; 280 to 360 g) in a dose of 3 mg/kg (i.v.), blood samples were taken out at predetermined intervals, and the change in the concentration of said drug left unchanged in the serum was measured.

[2] = Acute toxicity; set-up: species or system mice; conditions: mouse, in vivo, po; mortality one week later, method of Weil
Method: ddY-Mice (male; 6 to 7 week age) were used as test animals (each group consisting of four mice). Each of the mice was fasted from the previous day (16 to 18 hours before), a drug being tested was orally administered by using a gastric tube, and LD50 value was calculated from the mortality one week later according to the method of Weil.

[3] = test system: rat bladder; conditions: for Frequency (cycles of contraction per minute), 0.1 mg/kg (i.v.) / Frequency (cycles of contraction per minute), 0.3 mg/kg (i.v.) / Frequency (cycles of contraction per minute), 1.0 mg/kg (i.v.) / Frequency (cycles of contraction per minute), 3.0 mg/kg (i.v.): 0 to 15 minutes, cumulative administration; for Frequency (cycles of contraction per minute), 1.0 mg/kg (i.v.): *p < 0.05; for Frequency (cycles of contraction per minute), 3.0 mg/kg (i.v.): **p < 0.01; for Frequency (cycles of contraction per minute), before administration: before administration (baseline); for action to suppress the frequency of contraction: i.v., cumulative, result in words
[4] = target: detrusor muscles of excised rabbit bladder (Oryctolagus cuniculus, UniProt G1U308)
Text: 1. Action upon detrusor muscles of excised rabbit bladder
(1) Anticholinergic action
The specimens were contracted by carbachol cumulation, and a reaction curve with respect to carbachol concentration was obtained.

[5] = test system: detrusor muscles of excised rabbit bladder; experiment: Ca++ antagonism upon detrusor muscles of excised rabbit bladder (calcium chloride contraction); conditions: for pA2 value, Ca++ Antagonism: calcium chloride cumulation, Ca++-free, high KCl-modified Krebs' solution, excised rabbit detrusor
[6] = prior art statement; cited from earlier work

Chain of detrusor muscles of excised rabbit bladder (Oryctolagus cuniculus, UniProt G1U308) (G1U308 entry or part of it): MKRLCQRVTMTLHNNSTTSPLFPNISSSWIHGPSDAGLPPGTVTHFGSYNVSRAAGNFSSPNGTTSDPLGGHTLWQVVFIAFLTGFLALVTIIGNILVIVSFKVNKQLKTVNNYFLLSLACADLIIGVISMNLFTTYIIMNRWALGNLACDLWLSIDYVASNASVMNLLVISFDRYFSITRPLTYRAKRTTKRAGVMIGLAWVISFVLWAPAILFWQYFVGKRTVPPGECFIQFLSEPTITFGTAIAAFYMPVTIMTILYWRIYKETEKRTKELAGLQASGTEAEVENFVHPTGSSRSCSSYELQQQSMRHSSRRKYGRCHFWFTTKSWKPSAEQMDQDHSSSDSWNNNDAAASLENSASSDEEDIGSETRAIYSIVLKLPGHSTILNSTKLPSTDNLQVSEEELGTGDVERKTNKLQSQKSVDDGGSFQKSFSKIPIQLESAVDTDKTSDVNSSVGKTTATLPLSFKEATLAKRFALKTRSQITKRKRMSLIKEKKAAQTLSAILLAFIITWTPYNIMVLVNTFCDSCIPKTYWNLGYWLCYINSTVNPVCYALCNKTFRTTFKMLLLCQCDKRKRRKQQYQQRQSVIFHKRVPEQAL

| SMILES | half-life [1] | LD50 at 168 h [2] | Frequency (cycles of contraction per minute), 0.1 mg/kg (i.v.) [3] | Frequency (cycles of contraction per minute), 0.3 mg/kg (i.v.) [3] | Frequency (cycles of contraction per minute), 1.0 mg/kg (i.v.) [3] | Frequency (cycles of contraction per minute), 3.0 mg/kg (i.v.) [3] | minimal effective dose ([3]; Rattus norvegicus, iv, read-out: doses showing action to suppress the frequency of contraction) | Frequency (cycles of contraction per minute), before administration [3] | action to suppress the frequency of contraction [3] | Kb [4] | anticholinergic action compared with oxybutynin ([4]; ratio to oxybutynin) | pA2 value, Ca++ Antagonism [5] | Ca++ antagonism compared with oxybutynin ([5]; ratio to oxybutynin) | side effects [6] |
| --- | --- | --- | --- | --- | --- | --- | --- | --- | --- | --- | --- | --- | --- | --- |
| CCN(CC)CC#CC(C)(C)OC(=O)C(O)(c1ccccc1)C1CCCCC1 (stereo not drawn) [Example 4, 4-diethylamino-1.1-dimethyl-2-butynyl α-cyclohexylα-phenylglycolate hydrochloride] | 51 min | 841 mg/kg | 1.1 ± 0.3 cycles of contraction per minute | 0.8 ± 0.2 cycles of contraction per minute | 0.3 ± 0.1 cycles of contraction per minute | 0.0 ± 0.0 cycles of contraction per minute | ≥ 0.1 mg/kg | 1.3 ± 0.3 cycles of contraction per minute | dose-dependent action to suppress the frequency of contraction | 46.8 nM | 1/17 | 6.72 | 8.3 times |  |
| CCN(CC)CC#CCOC(=O)C(O)(c1ccccc1)C1CCCCC1 (centres unmarked) [Oxybutynin, oxybutynin, reference compound] | 16.8 min |  | 1.1 ± 0.2 cycles of contraction per minute | 1.0 ± 0.2 cycles of contraction per minute | 1.2 ± 0.1 cycles of contraction per minute | 1.2 ± 0.2 cycles of contraction per minute |  | 1.0 ± 0.1 cycles of contraction per minute | no such action was observed | 2.75 nM |  | 5.80 |  | exhibits side effects such as thirst |
